The structures appear in SMILES notation. Like-named read-outs stand apart in the source and are kept apart here.

Here are results for 24 molecules from patent publication US20240101548A1, “HYDROXAMATE COMPOUND, PREPARATION METHOD THEREFOR AND APPLICATION THEREOF” (SHENZHEN CHIPSCREEN BIOSCIENCES CO., LTD., priority 2020, published 2024).

Experiment [1] deals with IL-2-induced JAK1/JAK3 signal pathway. Kind of experiment: IL-2-induced proliferation of KHYG-1 cells (JAK1/JAK3 signal). Type of experiment: cell-based, human. Particulars: Homo sapiens, read-out: Inhibition activity IC50 on IL-2-induced JAK1/JAK3 signal pathway. An excerpt:
The main physiological function of cytokine IL-2 is to stimulate and maintain the proliferation and differentiation of T cells. Generally, IL-2 dependent T cells cannot survive in in-vitro culture for a long time, but the addition of IL-2 can make them continue to proliferate. The signal pathway induced by IL-2 coupling with its receptor is mediated by JAK1/JAK3-STAT5, so the inhibitor of JAK1 and/or JAK3 can inhibit the proliferation of IL-2 dependent cells.
Human natural killer cell lymphoma cell line KHYG-1 was commercially available from Health Science Research Resources Bank (HSRRB), and relevant culture conditions referred to those from HSRRB.
The inhibition rate of the tested compound on IL-2-induced cell proliferation was calculated using Microsoft Excel.
After culture at 37° C. and 5% CO2 for 72 hours, alamarBlue™ Cell Viability Reagent was added to each well following the instructions.
The well in which neither compound nor cytokine was added was designated as 0% control well, and the fluorescence value in the wells in which the final concentration of compound was 0 was designated as 100% control. The inhibition activity […] of the tested compound on JAK1/JAK3 could be calculated from the inhibition rate of the tested compound on IL-2-induced cell proliferation at different doses.

The test system of experiment [2] is EPO-induced JAK2 signal pathway. The experiment in a line: EPO-induced proliferation of UT-7 cells (JAK2 signal). Type of experiment: cell-based, human. Particulars: Homo sapiens, UT7; UT-7 cell proliferation, EPO 10 ng/mL, 72 hours; read-out: Inhibition activity IC50 on EPO-induced JAK2 signal pathway. As to the method:
The cytokine EPO, i.e. erythropoietin, can promote the proliferation and division of erythroid progenitor cells, and the signal pathway induced by EPO coupling with its receptor is mediated by JAK2-STAT5.
Human promegakaryocytic leukemia cell line UT-7 was commercially available from Cell Resource Center, Institute of Basic Medicine, Chinese Academy of Medical Sciences. The culture medium was RPIM1640 containing 10% FBS, and EPO was added for a final concentration of 10 ng/mL.
The inhibition rate of the tested compound on EPO-induced cell proliferation was calculated using Microsoft Excel.
UT-7 cell line was inoculated in 96-well plate with flat bottom at 15000 cells per well, each well was added with 10 ng/mL of human recombinant EPO (Human EPO PEPROTECH 100-64-10UG), along with tested compound respectively for a final concentration of 0, 100, 1000 or 10000 nM. After culture at 37° C. and 5% CO2 for 72 hours, alamarBlue™ Cell Viability Reagent was added to each well following the instructions. After incubation at 37° C. for color reaction, the fluorescence value at Ex530/Em590 was detected using Tecan Spark™ 10M multimode microplate reader.
The well in which neither compound nor cytokine was added was designated as […], and the fluorescence value in the wells in which the final concentration of compound was 0 was designated as 100 control. The inhibition activity […] ofthe tested compound on JAK2 could be calculated from the inhibition rate ofthe tested compound on EPO-induced cell proliferation at different doses.

Setting [3] is: KHYG-1 cell proliferation, IL-2 10 ng/mL, 72 hours.

For `CONC(=O)c1cnc(Nc2cccnc2OC)cc1Nc1ccc(OC)nc1N(C)S(C)(=O)=O` [Example 9, N-methoxy-4-((6-methoxy-2-(N-methylmethanesulfonamido)pyridin-3-yl)amino)-6-((2-methoxypyridin-3-yl)amino)nicotinamide], the IC50 in experiment [1] (setting [3]) and in experiment [2] was more than 10 µM throughout.

`CONC(=O)c1cnc(NC(=O)C2CC2)cc1Nc1cccc(C#N)c1OC` [Example 31, 4-((3-cyano-2-methoxyphenyl)amino)-6-(cyclopropylcarboxamido)-N-methoxy nicotinamide]: the IC50 in experiment [1] (setting [3]) and in experiment [2] was more than 10 µM throughout.

For the molecule `CONC(=O)c1cnc(NC(=O)C2CC2)cc1Nc1cccc(C)c1N(C)S(C)(=O)=O` [Example 33, 6-(cyclopropylcarboxamido)-N-methoxy-4-((3-methyl-2-(N-methylmethanesulfonamido)phenyl)amino)nicotinamide], the IC50 in experiment [1] (setting [3]) and in experiment [2] was more than 10 µM each time.

Consider `CONC(=O)c1cnc(NC(=O)C2CC2)cc1Nc1cccc(C(N)=O)c1OC` [Example 57, 4-((3-carbamoyl-2-methoxyphenyl)amino)-6-(cyclopropylcarboxamido)-N-methoxy nicotinamide], for which the IC50 in experiment [1] (setting [3]) and in experiment [2] was more than 10 µM throughout.

Take `CCONC(=O)c1cnc(Nc2cc(C)nc(C)c2)cc1Nc1ccc(C2CC2)cc1N(C)S(C)(=O)=O` [Example 221]: the IC50 in experiment [1] (setting [3]) and in experiment [2] was more than 10 µM in each case.

In the case of `CONC(=O)c1cnc(Nc2ccc(S(C)(=O)=O)cc2)cc1Nc1cccc(-c2cnn(C)c2)c1OC` [Example 72, N-methoxy-4-((2-methoxy-3-(1-methyl-1H-pyrazol-4-yl)phenyl)amino)-6-((4-(methanesulfonyl)phenyl)amino)nicotinamide], the IC50 in experiment [1] (setting [3]) and in experiment [2] was more than 10 µM each time.

`CONC(=O)c1cnc(NC(=O)[C@H]2CC2(C)C)cc1Nc1ccc(C2CC2)cc1N(C)S(C)(=O)=O` [Example 94, (S)-4-((4-cyclopropyl-2-(N-methylmethanesulfonamido)phenyl)amino)-6-(2,2-dimethylcyclopropyl-1-carboxamido)-N-methoxy nicotinamide]: the IC50 in experiment [1] (setting [3]) and in experiment [2] was more than 10 µM each time.

As to `CONC(=O)c1cnc(NC(=O)C2CC2)cc1Nc1ccc(OC)nc1N(C)S(C)(=O)=O` [Example 7, 6-(cyclopropylcarboxamido)-N-methoxy-4-((6-methoxy-2-(N-methylmethanesulfonamido)pyridin-3-yl)amino)nicotinamide], the IC50 in experiment [1] (setting [3]) and in experiment [2] was more than 10 µM each time.

Take `CONC(=O)c1cnc(NC(=O)C2CC2)cc1Nc1cccc(C2CC2)c1N(C)S(C)(=O)=O` [Example 85, 6-(cyclopropylcarboxamido)-4-((3-cyclopropyl-2-(N-methylmethanesulfonamido)phenyl)amino)-N-methoxy nicotinamide]: the IC50 in experiment [1] (setting [3]) and in experiment [2] was more than 10 µM each time.

Turning to `CONC(=O)c1cnc(NC(=O)C2CC2)cc1Nc1cccc(-c2noc(C)n2)c1OC` [Example 55, 6-(cyclopropylcarboxamido)-N-methoxy-4-((2-methoxy-3-(5-methyl-1,2,4-oxadiazol-3-yl)phenyl)amino)nicotinamide], the IC50 in experiment [1] (setting [3]) and in experiment [2] was more than 10 µM in each case.

As for `CCONC(=O)c1cnc(Nc2ncc(F)cc2F)cc1Nc1cc(F)c(C(C)C)cc1N(C)S(C)(=O)=O` [Example 228, 6-((3,5-difluoropyridin-2-yl)amino)-N-ethoxy-4-((5-fluoro-4-isopropyl-2-(N-methylmethanesulfonamido)phenyl)amino)nicotinamide], the IC50 in experiment [1] (setting [3]) and in experiment [2] was more than 10 µM throughout.

As to `CONC(=O)c1cnc(NC(=O)C2CC2)cc1Nc1ccccc1S(=O)(=O)N(C)C` [Example 34, 6-(cyclopropylcarboxamido)-4-((2-(N,N-dimethylaminosulfonyl)phenyl)amino)-N-methoxy nicotinamide], the IC50 in experiment [1] (setting [3]) and in experiment [2] was more than 10 µM throughout.

On to `CONC(=O)c1cnc(Nc2cccc(F)n2)cc1Nc1ccccc1S(=O)(=O)N(C)C` [Example 37, 4-((2-(N,N-dimethylaminosulfonyl)phenyl)amino)-6-((6-fluoropyridin-2-yl)amino)-N-methoxy nicotinamide], for which the IC50 in experiment [1] (setting [3]) and in experiment [2] was more than 10 µM each time.

Turning to `CONC(=O)c1cnc(NC(=O)C2CC2)cc1Nc1cccc(C(F)(F)F)c1N(C)S(C)(=O)=O` [Example 82, 6-(cyclopropylcarboxamido)-N-methoxy-4-((2-(N-methylmethanesulfonamido)-3-(trifluoromethyl)phenyl)amino)nicotinamide], the IC50 in experiment [1] (setting [3]) and in experiment [2] was more than 10 µM throughout.

On to `CONC(=O)c1cnc(Nc2ccc(C(F)(F)F)cn2)cc1Nc1ccccc1N(C)S(C)(=O)=O` [Example 92, N-methoxy-4-((2-(N-methylmethanesulfonamido)phenyl)amino)-6-((5-(trifluoromethyl)pyridin-2-yl)amino)nicotinamide], for which the IC50 in experiment [1] (setting [3]) and in experiment [2] was more than 10 µM each time.

Consider `CONC(=O)c1cnc(Nc2cccc(F)n2)cc1Nc1cccc(-c2cnn(C)c2)c1N(C)S(C)(=O)=O` [Example 88, 6-((6-fluoropyridin-2-yl)amino)-N-methoxy-4-((3-(1-methyl-1H-pyrazol-4-yl)-2-(N-methylmethanesulfonamido)phenyl)amino)nicotinamide], for which the IC50 in experiment [1] (setting [3]) and in experiment [2] was more than 10 µM each time.

Consider `CCONC(=O)c1cnc(Nc2cc(C)nc(C)n2)cc1Nc1ccc(Cl)cc1N(C)S(=O)(=O)C1CC1` [Example 184], for which the IC50 in experiment [1] (setting [3]) and in experiment [2] was more than 10 µM in each case.

As for `CONC(=O)c1cnc(NC(=O)C2CC2)cc1Nc1cccc(Cl)c1N(C)S(C)(=O)=O` [Example 75, 4-((3-chloro-2-(N-methylmethanesulfonamido)phenyl)amino)-6-(cyclopropylcarboxamido)-N-methoxy nicotinamide], the IC50 in experiment [1] (setting [3]) and in experiment [2] was more than 10 µM throughout.

As to `CCONC(=O)c1nnc(Nc2cc(C)nc(C)n2)cc1Nc1cccc(-c2ncc(C)cn2)c1OC` [Example 276, 6-((2,6-dimethylpyrimidin-4-yl)amino)-N-ethoxy-4-((2-methoxy-3-(5-methylpyrimidin-2-yl)phenyl)amino)pyridazine-3-carboxamide], the IC50 in experiment [1] (setting [3]) and in experiment [2] was more than 10 µM each time.

As for `CON(C)C(=O)c1cnc(Nc2cccc(F)n2)cc1Nc1ccccc1N(C)S(C)(=O)=O` [Example 65, 6-((6-fluoropyridin-2-yl)amino)-N-methoxy-N-methyl-4-((2-(N-methylmethanesulfonamido)phenyl)amino)nicotinamide], the IC50 in experiment [1] (KHYG-1, 72 h) was more than 10 µM; in experiment [2], more than 10 µM.

As for `CN(c1ccccc1Nc1cc(NC(=O)C2CC2)ncc1C(=O)NOC(C)(C)C)S(C)(=O)=O` [Example 91, N-(t-butoxy)-6-(cyclopropylcarboxamido)-4-((2-(N-methylmethanesulfonamido)phenyl)amino)nicotinamide], the IC50 in experiment [1] (setting [3]) and in experiment [2] was more than 10 µM throughout.

Regarding `CONC(=O)c1cnc(NC(=O)C2CC2)cc1Nc1cccn(-c2nccs2)c1=O` [Example 1, 6-(cyclopropylcarboxamido)-N-methoxy-4-((2-oxo-1-(thiazol-2-yl)-1,2-dihydropyridin-3-yl)amino)nicotinamide], the IC50 in experiment [1] (setting [3]) and in experiment [2] was more than 10 µM each time.

Turning to `CONC(=O)c1cnc(Nc2ccc(F)cn2)cc1Nc1cccc(-c2ccn(C)n2)c1OCC(F)(F)F` [Example 51, 6-((5-fluoropyridin-2-yl)amino)-N-methoxy-4-((3-(1-methyl-1H-pyrazol-3-yl)-2-(2,2,2-trifluoroethoxy)phenyl)amino)nicotinamide], the IC50 in experiment [1] (setting [3]) and in experiment [2] was more than 10 µM in each case.

As to `CCONC(=O)c1cnc(Nc2ccc(C3CC3)cn2)cc1Nc1ccccc1N(C)S(C)(=O)=O` [Example 27, 6-((5-cyclopropylpyridin-2-yl)amino)-N-ethoxy-4-((2-(N-methylmethanesulfonamido)phenyl)amino)nicotinamide], the IC50 in experiment [1] (setting [3]) and in experiment [2] was more than 10 µM in each case.
